Data: US9572786B2, “Use of capsiate or dihydrocapsidate” (Catholic University Industry Academy Cooperation Foundation, priority 2007, dated 2017)

Legend:
VE-cadherin [1] = experiment: Tyrosine phosphorylation of VE-cadherin, Western blotting; type: cell-based, human; conditions: HUVEC; 5, 10, 25 μM; 50 ng/mL VEGF
Description: Because VEGF is known to induce tyrosine phosphorylation of VE-cadherin and thereby regulate permeability between endothelial cells by making the intercellular contact loose [Esser S. et al., 1998, J. Cell Sci., 111: 1853-1865], the inhibition effect on tyrosine phosphorylation of VE-cadherin was investigated.
3.5×10^5 HUVEC were placed on a 60 mm plate and cultured for 24 hours. After washing twice with M199 medium (Invitrogen, USA), the cells were cultured in M199 medium containing 1% FBS for 6 hours. After treating with capsiate or dihydrocapsiate at different concentrations (5 μM, 10 μM, 25 μM) for 30 minutes, followed by pre-culturing for 30 minutes, the cells were cultured for 6 hours after adding 50 ng/mL VEGF. Proteins were collected from the cells and, after quantitation, subjected to Western blotting using VE-cadherin antibody in order to identify the level of protein expression.

C57/BL6 mouse = experiment: Mouse Matrigel plug assay; type: in vivo; conditions: 60 μg in 0.6 mL Matrigel with 100 ng VEGF, subcutaneous injection, 6 days
Description: Mouse Matrigel plug was carried out in order to investigate the effect of capsiate or dihydrocapsiate on VEGF-induced angiogenesis in vivo [Min K J et al., 2007, Blood, 15: 1495-1502].
0.6 mL of Matrigel containing 60 μg of capsiate or dihydrocapsiate, 100 ng of VEGF and 10 units of heparin or Matrigel containing 100 ng of VEGF only was administered to C57/BL6 mouse (Orient, Korea) through subcutaneous injection. 6 days later, the produced Matrigel plug was taken out.

VE-cadherin [2] = experiment: VE-cadherin expression in the intercellular junction, immunofluorescence; type: cell-based, human; conditions: HUVEC; 5, 10, 25 μM pre-treatment; VEGF 50 ng/mL for 1 hour
Description: In order to identify if the change of permeability of endothelial cells is related with VE-cadherin, the level of VE-cadherin expression in the intercellular junction was investigated.
HUVEC were placed on a gelatin-coated cover slip at a concentration of 12×10^5 cells/well and cultured for 24 hours. After washing twice with M199 medium, the cells were cultured in M199 medium containing 1% for 6 hours. After treating with capsiate or dihydrocapsiate at different concentrations (5 μM, 10 μM, 25 μM) for 30 minutes, the cells were treated with VEGF (50 ng/mL) for 1 hour. The cells were fixed and made permeable by treating with 2% formaldehyde for 10 minutes, and washed 3 times with PBS. Subsequently, the cells were treated with 0.1% Triton X-100 and 2% bovine serum albumin (BSA)/PBS blocking solution for 30 minutes. After labeling with VE-cadherin at room temperature for 2 hours, followed by washing with PBS, the cells were labeled again with FITC-conjugated secondary antibody at room temperature for 1 hour and 30 minutes. The cover slip was mounted on SloFade (Molecular Probes) and observed under a fluorescence microscope (Carl Zeiss).

HUVEC [3] = experiment: VEGF-induced proliferation of endothelial cells, 3H-thymidine incorporation assay; type: cell-based, human; conditions: 25 μM; 10 ng/mL VEGF
Description: The inhibition effect of capsiate or dihydrocapsiate on the proliferation of EC induced by VEGF was investigated by ^3H-thymidine incorporation assay according to a method published in the literature [Lee O H et al., 1999, Biochem. Biophys. Res. Commun., 264: 743-750].
In brief, HUVEC were placed on a gelatin-coated 24-well plate at a concentration of 2×10^4 cells/well. After culturing for 24 hours, followed by washing twice with M199 medium (Invitrogen, USA), the cells were cultured for 6 hours in M199 medium containing 1% FBS. After addition of 25 μM capsiate or dihydrocapsiate, followed by pre-culturing for 30 minutes, 10 ng/mL VEGF was added and the cells were cultured for 30 hours. Then, 0.5 μCi/mL ^3H-thymidine was added and the cells were cultured for 6 hours.
DNA was precipitated from the cultured cells in 10% trichloroacetic acid at 4° C. for 30 minutes and washed twice with water. The DNA was dissolved in 0.2 N NaOH/0.1% SDS and measured using a liquid scintillation counter.

cyclin A = experiment: Cyclin expression, Western blotting: cyclin A; type: cell-based, human; conditions: HUVEC; 1, 5, 10, 25 μM; 10 ng/mL VEGF; 12 hours
Description: 3×10^5 HUVEC were placed on a 60 mm plate and cultured for 24 hours. After washing twice with M199 medium (Invitrogen, USA), the cells were cultured in M199 medium containing 1% FBS for 6 hours. After adding capsiate or dihydrocapsiate at different concentrations (1 μM, 5 μM, 10 μM, 25 μM), followed by pre-culturing for 30 minutes, 10 ng/mL VEGF was added and the cells were cultured for 12 hours. The cells were collected and proteins obtained therefrom were quantitated and the expression level of the proteins was identified by Western blotting using antibodies of cyclin D1, cyclin E and cyclin A.

aortic ring = experiment: Sprouting from the aortic ring; type: cell-based, Sprague Dawley rat; conditions: rat aortic ring in Matrigel; 6 days; evaluation 0 to 5 points
Description: The degree of sprouting from the aortic ring caused by treatment with VEGF was investigated as follows in order to identify the effect of capsiate or dihydrocapsiate on VEGF-induced angiogenesis.
The aortic ring was prepared from the artery of Sprague Dawley rat (6-8 weeks old). The aortic ring was placed on a 48-well plate coated with 120 μL of Matrigel and 50 μL of Matrigel was further added. Then, 200 μL of a medium (human endothelial serum-free medium, Invitrogen, USA) containing capsiate or dihydrocapsiate and VEGF or a medium containing only VEGF was added. 6 days later, the cells were fixed, stained using Diff-Quick and subjected to evaluation (0 to 5 points) in a double blinded manner.

HUVEC [4] = experiment: Chemotactic mobility, Transwell assay; type: cell-based, human; conditions: 1, 5, 10, 25 μM; 4 hours
Description: Transwell assay (Corning Costar, USA) was carried out in order to investigate the effect of capsiate or dihydrocapsiate on chemotactic mobility of HUVEC [Lee O H et al., 1999, Biochem. Biophys. Res. Commun. 264; 743-750].
In brief, the bottom side of a filter was coated with 10 μg of gelatin and M199 medium containing VEGF and 1% FBS was added to the lower well. HUVEC were prepared by treating with trypsin and diluting in M199 medium containing 1% FBS to a concentration of 1×10^6 cells/mL. Capsiate or dihydrocapsiate at different concentrations (1 μM, 5 μM, 10 μM, 25 μM) were pre-treated at room temperature for 30 minutes. The cells in […] of medium were added to the upper well and cultured at 37° C. for 4 hours. After fixation, followed by staining with hematoxylin and eosin, the cells remaining on the top surface of the filter without moving were removed. The cells that migrated to the bottom side of the filter were observed and counted using an optical microscope (×200).

Compound: COc1cc(COC(=O)CCCC/C=C/C(C)C)ccc1O [capsiate]
- VEGF-induced phosphorylation of VE-cadherin (VE-cadherin [1]): decreased in a concentration-dependent manner
- VEGF-induced angiogenesis in Matrigel plug (colour) (C57/BL6 mouse): angiogenesis hardly occurred
- cell adhesion ability of VE-cadherin in the intercellular junction (VE-cadherin [2]): recovered
- VEGF-increased DNA synthesis in HUVEC (3H-thymidine incorporation) (HUVEC [3]): inhibited the DNA synthesis
- VEGF-increased cyclin A expression in protein level (cyclin A): concentration-dependent decrease
- VEGF-promoted sprouting from the aortic ring (aortic ring): inhibited the sprouting in a concentration-dependent manner
- VEGF-increased chemotactic mobility of HUVEC (HUVEC [4]): decreased in a concentration-dependent manner

Compound: COc1cc(COC(=O)CCCCCCC(C)C)ccc1O [dihydrocapsiate]
- VEGF-induced phosphorylation of VE-cadherin (VE-cadherin [1]): decreased in a concentration-dependent manner
- VEGF-induced angiogenesis in Matrigel plug (colour) (C57/BL6 mouse): angiogenesis hardly occurred
- cell adhesion ability of VE-cadherin in the intercellular junction (VE-cadherin [2]): recovered
- VEGF-increased DNA synthesis in HUVEC (3H-thymidine incorporation) (HUVEC [3]): inhibited the DNA synthesis
- VEGF-increased cyclin A expression in protein level (cyclin A): concentration-dependent decrease
- VEGF-promoted sprouting from the aortic ring (aortic ring): inhibited the sprouting in a concentration-dependent manner
- VEGF-increased chemotactic mobility of HUVEC (HUVEC [4]): decreased in a concentration-dependent manner
